Measured values reported in the NIST ThermoML archive (doi:10.1021/je700022b).
Numbers after ± are expanded uncertainties.

Assay: xn = mol fraction of the nth substance listed
Conditions: Liquid; for mass density: Constant-volume piezometry

CCCCn1cc[n+](C)c1.F[P-](F)(F)(F)(F)F [1-butyl-3-methylimidazolium hexafluorophosphate] + O=C=O
Conditions	mass density, 293.15 K [kg/m3]	mass density, 313.15 K [kg/m3]	mass density, 333.15 K [kg/m3]	mass density, 353.15 K [kg/m3]	viscosity, 293.15 K [mPa·s]	viscosity, 313.15 K [mPa·s]	viscosity, 333.15 K [mPa·s]	viscosity, 353.15 K [mPa·s]
10000 kPa, x2 = 0.056	1371 ± 6	1350 ± 5	1327 ± 5	1306 ± 5	372 ± 51	119 ± 10	49.3 ± 3.1	25.2 ± 1.6
10000 kPa, x2 = 0.123	1368 ± 6	1342 ± 5	1313 ± 5	1286 ± 5	277 ± 34	84.8 ± 5.9	40.6 ± 2.5	21.6 ± 1.4
10000 kPa, x2 = 0.229	1361 ± 5	1329 ± 5	1293 ± 5	1260 ± 5	135 ± 12	54.1 ± 3.3	27.2 ± 1.7	15.8 ± 1
10000 kPa, x2 = 0.332	1354 ± 5	1313 ± 5	1268 ± 5	1226 ± 5	89.2 ± 6.3	36.9 ± 2.3	20.5 ± 1.3	12.3 ± 0.8
10000 kPa, x2 = 0.44	1346 ± 5	1288 ± 5	1223 ± 5	1162 ± 5	43.9 ± 2.7	24.7 ± 1.5	16.1 ± 1	10.7 ± 0.7
15000 kPa, x2 = 0	1377 ± 6	1362 ± 6	1346 ± 5	1330 ± 5	468 ± 71	140 ± 12	61 ± 3.8	29.3 ± 1.8
15000 kPa, x2 = 0.056	1374 ± 6	1356 ± 5	1338 ± 5	1319 ± 5	397 ± 56	125 ± 10	51.9 ± 3.2	26.4 ± 1.7
15000 kPa, x2 = 0.123	1371 ± 6	1351 ± 5	1330 ± 5	1310 ± 5	287 ± 35	90.1 ± 6.4	42.8 ± 2.7	22.6 ± 1.4
15000 kPa, x2 = 0.229	1365 ± 6	1344 ± 5	1321 ± 5	1299 ± 5	144 ± 13	55.8 ± 3.4	28.3 ± 1.8	16.5 ± 1
15000 kPa, x2 = 0.332	1358 ± 5	1337 ± 5	1308 ± 5	1284 ± 5	91.9 ± 6.5	39.9 ± 2.5	21.1 ± 1.3	12.7 ± 0.8
15000 kPa, x2 = 0.44	1351 ± 5	1323 ± 5	1286 ± 5	1255 ± 5	45.9 ± 2.8	24.8 ± 1.5	16.5 ± 1	10.8 ± 0.7
20000 kPa, x2 = 0	1379 ± 6	1364 ± 6	1349 ± 5	1332 ± 5	504 ± 78	151 ± 14	63.2 ± 4	30.5 ± 1.9
20000 kPa, x2 = 0.056	1377 ± 6	1360 ± 6	1343 ± 5	1325 ± 5	424 ± 61	132 ± 11	54.5 ± 3.3	28 ± 1.8
20000 kPa, x2 = 0.123	1375 ± 6	1356 ± 5	1338 ± 5	1319 ± 5	310 ± 40	92.4 ± 6.7	44.2 ± 2.8	23.4 ± 1.5
20000 kPa, x2 = 0.229	1368 ± 6	1350 ± 5	1329 ± 5	1310 ± 5	150 ± 14	61.2 ± 3.8	29.1 ± 1.8	16.9 ± 1.1
20000 kPa, x2 = 0.332	1362 ± 5	1342 ± 5	1319 ± 5	1298 ± 5	100 ± 7	41.6 ± 2.6	21.7 ± 1.3	12.8 ± 0.8
20000 kPa, x2 = 0.44	1355 ± 5	1330 ± 5	1304 ± 5	1278 ± 5	46.8 ± 2.9	26.8 ± 1.7	17 ± 1.1	10.9 ± 0.7
